Data taken from patent US20040023994A1 (priority 2002, published 2004).
Marks after values point to notes of the source that are not given here.

Tests used:
Colon cell lines [1] = assay: cells; conditions: for GI50: read-out: median GI50; for CC50: read-out: median LC50
Breast cell lines [2] = system: Breast cell lines
COLO 205 = conditions: COLO 205, Colon, NCI database, cited from earlier work; for CC50: read-out: LC50 (the source's name)
Prostate cell lines [3] = assay: cells; conditions: for GI50: read-out: median GI50; for CC50: read-out: median LC50
CNS cell lines [4] = assay: cells; conditions: Homo sapiens; for GI50: read-out: median GI50; for CC50: read-out: median LC50
NSCL cell lines [5] = assay: cells; conditions: for GI50: read-out: median GI50; for CC50: read-out: median LC50
Leukemia cell lines [6] = assay: cells; conditions: for GI50: read-out: median GI50; for CC50: read-out: median LC50
Breast cell lines [7] = assay: cells; conditions: for GI50: read-out: median GI50; for CC50: read-out: median LC50
A-498 cells = assay: MTT cytotoxicity assay; type: cell-based, human; conditions: Homo sapiens, A498
Method: (§1) Preliminary studies examining the in vitro cytotoxicity of cis-AVTP and trans-AVTG as compared to the parent drugs, were carried out using the 3-[4,5-dimethylthiazol-2-yl]-2,5-diphenyl tetrazolium bromide (MTT) cytotoxicity assay.

ACHN cells = assay: MTT cytotoxicity assay; type: cell-based, human; conditions: Homo sapiens
Method: as §1

Melanoma cell lines [8] = assay: cells; conditions: for GI50: read-out: median GI50; for CC50: read-out: median LC50
Leukemia cell lines [9] = conditions: Leukemia
NSCL cell lines [10] = system: NSCL cell lines
Renal cell lines [11] = assay: cells; conditions: for GI50: read-out: median GI50; for CC50: read-out: median LC50
Melanoma cell lines [12] = system: Melanoma cell lines
Ovarian cell lines = assay: NCI anticancer screen, by tissue type; conditions: for median TGI: Ovarian; for GI50: read-out: median GI50; for CC50: read-out: median LC50
HCT-15 = conditions: HCT-15, Colon, NCI database, cited from earlier work; for CC50: read-out: LC50 (the source's name)
Prostate cell lines [13] = system: Prostate cell lines
Renal cell lines [14] = system: Renal cell lines
Colon cell lines [15] = system: Colon cell lines
[16] = system: all the cell lines included in the screen; assay: cells; conditions: for median TGI: all cell lines of the NCI screen; for GI50: read-out: median GI50; for CC50: read-out: median LC50
Method: cis-AVTP and trans-AVTG were tested in National Cancer Institute's (NCI) 60 cell lines derived from leukemia, melanoma, lung, kidney cancers. Most chemotherapeutic agents currently nd 6-TG, have been tested in this screen and a database he National Institutes of Health. The NCI assigned s-AVTP, and number NSC-722289 to trans-AVTG. tocol used for the cytotoxicity assessment in the NCI e from the National Institutes of Health. Briefly, tumor ma, lung, colon, brain, ovary, breast, prostate, and um containing 5% fetal bovine serum and 2 mM L-glutamine re plated in a 100 μL volume into 96 well microtiter 37° C. in humidified atmosphere supplemented with 5% ach cell line were fixed with trichloroacetic acid for f drug addition (Tz). The drugs, as 400-fold concentrated uted to twice the final maximum test concentration with entamicin. Additional four 10-fold dilutions were made us control. Aliquots (100 μl) of the drug solutions were 100 μl of medium, resulting in the required final drug the plates were incubated at 37° C. in humidified for additional 48 h. The assay was terminated by the w/v) trichloroacetic acid for adherent and suspension minutes at 4° C. The supernatant was discarded, the and air dried. A 100 μl aliquot of 0.4% (w/v) sulforhodamine B (SRB) solution in 1% acetic acid was added to each well, and the plates incubated for 10 minutes at room temperature. After staining, unbound dye was removed by washing five times with 1% acetic acid and the plates air dried. Bound stain was solubilized with 10 mM trizma base, and the absorbance read on a plate reader at a wavelength of 515 nm.
By using time zero (Tz), control growth (C), and test growth in the presence of drug at the five concentration levels (Ti), the percentage growth was calculated at each of the drug concentration levels. Percentage growth inhibition was calculated as:
[(Ti−Tz)/(C−Tz)]×100 for concentrations for which Ti>/=Tz
[(Ti−Tz)/Tz]×100 for concentrations for which Ti<Tz.
Three dose response parameters were calculated for each experimental agent. […] The TGI, the drug concentration resulting in total growth inhibition was calculated from Ti=Tz. The LC50 (the concentration of drug resulting in a 50% reduction in the measured protein at the end of the drug treatment as compared to that at the beginning) indicating a net loss of cells following treatment was calculated from [(Ti−Tz)/Tz]×100=−50. Values were calculated for each of these three parameters if the level of activity is reached; however, if the effect was not reached or was exceeded, the value for that parameter is expressed as greater or less than the maximum or minimum concentration tested.

CNS cell lines [17] = system: CNS cell lines

Compound: Sc1ncnc2nc[nH]c12 [6-MP, 6-mercaptopurine]
- GI50 (Colon cell lines [1]): 4.53 µM
- CC50 (Colon cell lines [1]): > 100 µM
- median TGI (Breast cell lines [2]): >100 µM
- GI50 (COLO 205): 4.68 µM
- TGI (COLO 205): >100 µM
- CC50 (COLO 205): > 100 µM
- GI50 (Prostate cell lines [3]): 2.77 µM
- CC50 (Prostate cell lines [3]): > 100 µM
- GI50 (CNS cell lines [4]): 6.64 µM
- CC50 (CNS cell lines [4]): > 100 µM
- GI50 (NSCL cell lines [5]): 3.74 µM
- CC50 (NSCL cell lines [5]): > 100 µM
- GI50 (Leukemia cell lines [6]): 1.39 µM
- CC50 (Leukemia cell lines [6]): > 100 µM
- GI50 (Breast cell lines [7]): 9.42 µM
- CC50 (Breast cell lines [7]): > 100 µM
- IC50 (A-498 cells; A-498, 72 h incubation, MTT): 60.6 ± 25.5 µM
- IC50 (A-498 cells; A-498, 96 h drug incubation): 14.9 ± 6.7 µM
- IC50 (ACHN cells; 48 h drug incubation): 44.8 ± 5 µM
- IC50 (ACHN cells; 72 h incubation, MTT): 6.3 ± 1.9 µM
- IC50 (ACHN cells; 96 h drug incubation): 0.9 ± 0.3 µM
- GI50 (Melanoma cell lines [8]): 5.04 µM
- CC50 (Melanoma cell lines [8]): > 100 µM
- median TGI (Leukemia cell lines [9]): >100 µM
- median TGI (NSCL cell lines [10]): >100 µM
- GI50 (Renal cell lines [11]): 4.33 µM
- CC50 (Renal cell lines [11]): > 100 µM
- median TGI (Melanoma cell lines [12]): >100 µM
- median TGI (Ovarian cell lines): >100 µM
- GI50 (Ovarian cell lines): 4.77 µM
- CC50 (Ovarian cell lines): > 100 µM
- GI50 (HCT-15): 4.38 µM
- TGI (HCT-15): >100 µM
- CC50 (HCT-15): > 100 µM
- median TGI (Prostate cell lines [13]): >100 µM
- median TGI (Renal cell lines [14]): >100 µM
- median TGI (Colon cell lines [15]): >100 µM
- median TGI [16]: >100 µM
- GI50 [16]: 3.97 µM
- CC50 [16]: > 100 µM
- median TGI (CNS cell lines [17]): >100 µM

Compound: Nc1nc2nc[nH]c2c(=S)[nH]1 [6-TG, 6-thioguanine]
- GI50 (Colon cell lines [1]): 1.32 µM
- CC50 (Colon cell lines [1]): > 100 µM
- median TGI (Breast cell lines [2]): 67.8^# μM
- GI50 (COLO 205): 1.67 µM
- TGI (COLO 205): 8.75 µM
- CC50 (COLO 205): 34.5 µM
- GI50 (Prostate cell lines [3]): 1.27 µM
- CC50 (Prostate cell lines [3]): > 100 µM
- GI50 (CNS cell lines [4]): 1.28 µM
- CC50 (CNS cell lines [4]): > 100 µM
- GI50 (NSCL cell lines [5]): 0.91 µM
- CC50 (NSCL cell lines [5]): > 100 µM
- GI50 (Leukemia cell lines [6]): 0.33 µM
- CC50 (Leukemia cell lines [6]): > 100 µM
- GI50 (Breast cell lines [7]): 1.48 µM
- CC50 (Breast cell lines [7]): > 100 µM
- IC50 (A-498 cells; A-498, 72 h incubation, MTT): 6.9 ± 4.1 µM
- IC50 (ACHN cells; 72 h incubation, MTT): 2.5 ± 0.8 µM
- GI50 (Melanoma cell lines [8]): 1.13 µM
- CC50 (Melanoma cell lines [8]): > 100 µM
- median TGI (Leukemia cell lines [9]): 19.4 µM
- median TGI (NSCL cell lines [10]): 24.0 µM
- GI50 (Renal cell lines [11]): 1.14 µM
- CC50 (Renal cell lines [11]): > 100 µM
- median TGI (Melanoma cell lines [12]): 15.3 µM
- median TGI (Ovarian cell lines): 53.8 µM
- GI50 (Ovarian cell lines): 0.7 µM
- CC50 (Ovarian cell lines): > 100 µM
- GI50 (HCT-15): 1.07 µM
- TGI (HCT-15): 50.9 µM
- CC50 (HCT-15): > 100 µM
- median TGI (Prostate cell lines [13]): >100 µM
- median TGI (Renal cell lines [14]): 89.2^# μM
- median TGI (Colon cell lines [15]): 41.2 µM
- median TGI [16]: 41.3 µM
- GI50 [16]: 1.04 µM
- CC50 [16]: > 100 µM
- median TGI (CNS cell lines [17]): >100 µM
